Marks after values point to notes of the source that are not given here.
Assays:
[1] = tested on: CFTR; conditions: disclosed in PCT Publication No. WO 2016/057572; cited from earlier work
[2] = tested on: people with CF who have two copies of the F508del mutation (F/F); assay: Phase 2 study Part 2: efficacy (ppFEV1, sweat chloride); type: in vivo, human; conditions: Part 2 F/F
Protocol: (§1) The safety of Compound I in triple combination with Compounds II and III is evaluated in CF subjects in a 2-part, randomized, double-blind, placebo- and Compound II/III-controlled, parallel-group, multicenter study. Parts 1 and 2 include a Screening Period, a 2-week Treatment Period, and a Safety Follow-up Visit. Part 2 also includes a 4-week Run-in Period before the Treatment Period and a 2-week Washout Period after the Treatment Period.
In Part 2, two dose levels of Compound I (200 and 300 mg q12h) in triple combination with Compound II (100 mg qd) and Compound III (150 mg q12h) is evaluated in subjects with the F508del/F508del genotype.
Part 2 has two cohorts (Cohorts 2A and 2B). In Cohort 2A, the triple combination of Compound I at 200 mg q12h, Compound II at 100 mg qd, and Compound III at 150 mg q12h is evaluated in subjects with the F508del/F508del genotype. In Cohort 2B, the triple combination of Compound I at 300 mg q12h, Compound II at 100 mg qd, and Compound III at 150 mg q12h is evaluated in subjects with the F508del/F508del genotype. The combination of placebo, Compound II, and Compound III is the comparator for both cohorts.
(§2) Primary endpoints for the study include: safety and tolerability assessments based on adverse events (AEs), clinical laboratory values, standard 12-lead electrocardiograms (ECGs), vital signs, and pulse oximetry. Secondary endpoints include: absolute change in sweat chloride concentrations from baseline at Day 15; absolute change in percent predicted forced expiratory volume in 1 second (ppFEV1) from baseline at Day 15; relative change in ppFEV1 from baseline at Day 15; absolute change in Cystic Fibrosis Questionnaire-Revised (CFQ-R) respiratory domain score from baseline at Day 15; and PK parameters of Compound I, Compound II, Compound III, and metabolites of Compounds II and III.
(§3) In this Phase 2 randomized, double-blind study, Compound I (100 mg, 200 mg and 300 mg q12h) in combination with Compound II (100 mg qd) and Compound III (150 mg q12h) in people with CF ages 18 and older who have one F508del mutation and one minimal function mutation and in people who have two copies of the F508del mutation was studied. Primary endpoints as described above in Example 6 were for safety and tolerability. Secondary endpoints included absolute change in ppFEV1 and change in sweat chloride.
In Part 2 of the study, the triple combination was evaluated for two weeks in 14 patients ages 18 and older who had two copies of the F508del mutation, who were already receiving the combination of Compound II and Compound III (4 weeks, 4 in placebo and 10 in Compound I 200 mg). A summary of the within-group lung function (ppFEV) (primary endpoint) and sweat chloride data (secondary endpoint) for the triple combination treatment period, from baseline (end of the 4-week Compound II/Compound III run-in period), through Day 15 is provided below.
A summary of the within-group lung function (ppFEV) (primary endpoint) and sweat chloride data (secondary endpoint) from patients in Part 2 of the study who received the triple combination including 300 mg of Compound I for 4 weeks is provided below.

[3] = Preclinical reproductive toxicology studies; conditions: in vivo
[4] = Example 4: randomized, double-blind, placebo-controlled single- and multiple-dose escalation study, safety and tolerability; type: in vivo, human; conditions: healthy volunteers
Source text: A randomized, double-blind, placebo-controlled, single- and multiple-dose, dose-escalation study was conduced in healthy volunteer subjects. Subjects were randomized to receive Compound I or placebo (Part A and Part B), and triple combination of Compound I, Compound II, and Compound III, or triple placebo (Part C).

[5] = Previous studies of Compound I, safety and tolerability; type: in vivo, human
[6] = tested on: people with CF who have one F508del mutation and one minimal function mutation (F/MF); assay: Phase 2 study Part 1: efficacy (ppFEV1, sweat chloride, CFQ-R); type: in vivo, human; conditions: Part 1 F/MF
Protocol: as §1
In Part 1, three dose levels of Compound I (100, 200, and 300 mg q12h) in triple combination with Compound II (100 mg qd) and Compound III (150 mg q12h) is evaluated in subjects with the F508del/MF genotype.
Part 1 has three cohorts (Cohorts IA, IB, and IC). In Cohort 1A, the triple combination of Compound I at 100 mg q12h, Compound II at 100 mg qd, and Compound III at 150 mg q12h is evaluated in subjects with the F508del/MF genotype. In Cohort IB, the triple combination of Compound I at 200 mg q12h, Compound II at 100 mg qd, and Compound III at 150 mg q12h is evaluated in subjects with the F508del/MF genotype. In Cohort IC, the triple combination of Compound I at 300 mg q12h, Compound II at 100 mg qd, and Compound III at 150 mg q12h is evaluated in subjects with the F508del/MF genotype. Triple placebo is the comparator for all three cohorts
as §2, §3
In Part 1 of the study, the triple combination was evaluated for two weeks in 34 patients ages 18 and older who had one F508de/mutation and one minimal function mutation (8 in combined placebo, 6 in Compound I 100 mg, 10 in Compound 1 200 mg, and 10 in Compound 1 300 mg). A summary of the within-group ppFEV (primary endpoint) and sweat chloride data (secondary endpoint) through Day 15 is provided below.

[7] = Compound I 200 mg in triple combination with Compound II and Compound III, n 10
[8] = Compound I 300 mg in triple combination with Compound II and Compound III, n 21
[9] = Compound I 100 mg in triple combination with Compound II and Compound III, n 6

Structure (SMILES): CC(C)COc1cc(F)cc(-c2ccc(C(=O)NS(=O)(=O)c3cccc(N)n3)c(N3C[C@@H](C)CC3(C)C)n2)c1 [Compound I, N-[(6-amino-2-pyridyl)sulfonyl]-6-(3-fluoro-5-isobutoxy-phenyl)-2-[(4S)-2,2,4-trimethylpyrrolidin-1-yl]pyridine-3-carboxamide]
- EC30 as CFTR modulator [1]: < 3000 nM
- Sweat Chloride, Abs. Change from Baseline, Day 15 Results [2, 7]: −21.3
- ppFEV1, Abs. Change from Baseline, Day 15 Results [2, 7]: 7.3
- Sweat Chloride, Abs. Change from Baseline, Day 15 Results [2, 8]: −23.9
- Sweat Chloride, Abs. Change from Baseline, Day 29 Results [2, 8]: −22.3
- ppFEV1, Abs. Change from Baseline, Day 15 Results [2, 8]: 5.1
- ppFEV1, Abs. Change from Baseline, Day 29 Results [2, 8]: 6.5
- Findings in preclinical reproductive toxicology studies [3]: no adverse findings of note
- Deaths, serious or severe adverse events ([4]; all parts of the study): no deaths or serious or severe adverse events
- Severity of adverse events ([4]; all parts of the study): mild or moderate
- Dose-limiting adverse events ([4]; multiple doses of 800 mg q12h): Dose-limiting adverse events were observed
- Tolerability ([4]; multiple doses up to 400 mg q12h for 14 days): well tolerated
- Tolerability ([4]; single doses from 50 mg up to 2000 mg): well tolerated
- Tolerability ([4]; up to 300 mg q12h in triple combination with Compound II (100 mg qd) and Compound III (150 mg q12h) for 13 days): well tolerated
- Safety and tolerability ([5]; multiple doses up to 300 mg q12h in combination with Compound II (100 mg qd) and Compound III (150 mg q12h), after 14 days of dosing): generally safe and tolerated
- Safety and tolerability ([5]; single doses up to 2000 mg and multiple doses up to 400 mg q12h): generally safe and well tolerated
- Hemolysis ([5]; subjects with glucose-6-phosphate dehydrogenase (G6PD) deficiency): treatment-emergent hemolysis in a subject who was found to have glucose-6-phosphate dehydrogenase (G6PD) deficiency
- Sweat Chloride, Abs. Change from Baseline, Day 15 Results [6, 9]: −19.5
- ppFEV1, Abs. Change from Baseline, Day 15 Results [6, 9]: 5.7
- ppFEV1, Abs. Change from Baseline, Day 15 Results [6, 7]: 9.7
- Sweat Chloride, Abs. Change from Baseline, Day 15 Results ([6]; Compound I 200 mg in triple combination with Compound II and Compound III, n 10, missing data from 2 subjects): −13.6^a
- Sweat Chloride, Abs. Change from Baseline, Day 15 Results ([6]; Compound I 300 mg in triple combination with Compound II and Compound III, n 10): −27.5
- ppFEV1, Abs. Change from Baseline, Day 15 Results ([6]; Compound I 300 mg in triple combination with Compound II and Compound III, n 10, missing data from 2 subjects): 8.0^a

Reference: patent publication US20200171015A1, “METHODS OF TREATMENT FOR CYSTIC FIBROSIS” (Vertex Pharmaceuticals Incorporated, priority 2017, published 2020)
